Values quoted from earlier work, collected in patent US20080176908A1, “Method of using squalene monooxygenase inhibitors to treat acne” (priority 2007, published 2008).

settings: compared with 2.5% hydrocortisone; test details not given

Structure (SMILES) | anti-inflammatory ability
Cc1cc(C2CCCCC2)n(O)c(=O)c1 [Ciclopirox, 6-cylcohexyl-1-hydroxy-4-methyl-pyridin-2-one] | greater anti-inflammatory ability than 2.5% hydrocortisone
CN(CC=CC#CC(C)(C)C)Cc1cccc2ccccc12 [terbinafine, N,6,6-trimethyl-N-(naphthalene-1-ylmethyl)hept-2-en-4-yn-1-amine] | greater anti-inflammatory ability than 2.5% hydrocortisone
CN(C/C=C/c1ccccc1)Cc1cccc2ccccc12 [naftifine, (E)-N-cinnamyl-N-methyl-1-naphthalenemethylamine] | greater anti-inflammatory ability than 2.5% hydrocortisone
